In patent publication US7671045B2, “17-phosphorous steroid derivatives useful as progesterone receptor modulators” (Janssen Pharmaceutica N.V., priority 2006, dated 2010):
Where two headings read alike, the source gives them in different places.

Assays:
[1] = system: A549 Human lung carcinoma cells; assay: Transient transfection and Steady Glo luciferase assay in A549 cells with dexamethasone challenge; type: cell-based
Procedure: Transient Transfection and Steady Glo Luciferase Assay
A549 Human lung carcinoma cells were grown in F-12K Nutrient Mixture containing 10% (v/v) fetal bovine serum (FBS; Invitrogen), 2 mM glutamine and 0.15% […] (Invitrogen)
A549 cells were split 1 to 3 in 175 cm tissue culture flask. The cells were incubated at 37° C. in CO2 incubator until the cells were 95% confluent (typically 24-30 hours).
The following solutions were prepared in sterile tubes: (a) Solution A: 1.5 μg/ml of DNA in 8.5 ml OPTI-MEM I Reduced Serum Medium. (GIBCO cat# 31985) and (b) Solution B: 6 μl/ml of DMRIE-C Reagent into […] OPTI-MEM I. The two solutions were combined and mixed gently, then incubated at room temperature for 40 minutes.
The A549 cells prepared above were washed with […] of OPTI-MEM I. The medium was removed and 17 ml of the lipid-DNA complex solution was overlayed onto cells. The cells ere then incubated for 16 h at 37° C. in CO2 incubator. The DNA-containing medium was removed and 30 ml of growth medium was added. (5% Charcoal treated FBS) After 5-6 h, the cells were seeded in a 96 well plate and the cells incubated overnight at 37° C. in CO2 incubator.
To each well was then added 5 μl of test compounds and the cells incubated at 37° C. for 10 min. 5 μL of dexamathasone (CAS [50-02-2]), a glucocorticoid agonist, solution was then added to each well for challenger and the cells incubated at 37° C. in CO2 incubator for 24 h. 100 μl of Luc-assay buffer was then added into each cell well and the cells incubated for 30 min at room temperature. A 150 μL sample from each well was then transferred into a DYNEX Microlitel plate and read on Top-counter.

[2] = system: T47D human breast cancer cells; assay: Alkaline phosphatase assay in human breast cancer cell line T47D; type: cell-based
Procedure: Alkaline Phosphatase Assay in Human Breast Cancer Cell Line T47D
T47D human breast cancer cells were grown in RPMI medium without phenol red (Invitrogen) containing 10% (v/v) heat-inactivated fetal bovine serum (FBS; Hyclone), 1% (v/v) penicillin-streptomycin (Invitrogen), 1% (w/v) glutamine (Invitrogen), and […] insulin (Sigma). Incubation conditions were 37° C. in a humidified 5% (v/v) carbon dioxide environment.
The cells were plated in 96-well tissue culture plates at 10,000 cells per well in assay medium [RPMI medium without phenol red (Invitrogen) containing 5% (v/v) charcoal-treated FBS (Hyclone) and 1% (v/v) penicillin-streptomycin (Invitrogen)]. Two days later, the medium was decanted and test compound or control were added at a final concentration of 0.1% (v/v) dimethyl sulfoxide in fresh assay medium. Twenty-four hours later, an alkaline phosphatase assay was performed using a SEAP kit (BD Biosciences Clontech, Palo Alto, Calif.). Briefly, the medium was decanted and the cells were fixed for 30 minutes at room temperature with 5% (v/v) formalin (Sigma). The cells were washed once with room temperature Hank's buffered saline solution (Invitrogen). Equal volumes (0.05 mL) of 1× Dilution Buffer, Assay Buffer and 1:20 substrate/enhancer mixture were then added. After 1 hour incubation at room temperature in the dark, the lysate was transferred to a white 96-well plate (Dynex) and luminescence was read using a LuminoSkan Ascent (Thermo Electron, Woburn, Mass.).

[3] = A549, 24 h, read-out: A549 IC50 (nM)
[4] = T47D, 24 h, read-out: T47D IC50 (nM)
[5] = transfected A549 cells, luciferase readout, challenged with dexamethasone (glucocorticoid agonist), 24 h, read-out: A549 IC50
[6] = T47D cells, alkaline phosphatase readout, 24 h with test compound, read-out: T47D IC50

Structure (SMILES)	IC50 [1, 3] [nM]	IC50 [2, 4] [nM]	IC50 [1, 5] [nM]	IC50 [2, 6] [nM]
CCOP(=O)(OCC)c1ccc([C@H]2C[C@]3(C)C(=O)CC[C@H]3[C@@H]3CCC4=CC(=O)CCC4=C32)cc1 [Compound 1]	254	> 1000		
C[C@]12C[C@H](c3ccc(P(C)(C)=O)cc3)C3=C4CCC(=O)C=C4CC[C@H]3[C@@H]1CCC2=O [Compound 2]			> 710	> 1000
C=C1CCO[C@]12CC[C@H]1[C@@H]3CCC4=CC(=O)CCC4=C3[C@@H](c3ccc(P(=O)(OCC)OCC)cc3)C[C@@]12C [Compound 3]	238	12		
C=C1CCO[C@]12CC[C@H]1[C@@H]3CCC4=CC(=O)CCC4=C3[C@@H](c3ccc(P(C)(C)=O)cc3)C[C@@]12C [Compound 4]			66.2	3
C[C@]12C[C@H](c3ccc(P(C)(C)=O)cc3)C3=C4CCC(=O)C=C4CC[C@H]3[C@@H]1CC[C@@]2(O)CC#N [Compound 6]			> 3000	> 1000
C[C@]12C[C@H](c3ccc(P(C)(C)=O)cc3)C3=C4CCC(=O)C=C4CC[C@H]3[C@@H]1CC[C@@]2(O)C(F)(F)C(F)(F)F [Compound 7]			624	8.4
CCOP(=O)(OCC)c1ccc([C@H]2C[C@@]3(C)[C@@H](CC[C@@]3(O)C(F)(F)C(F)(F)F)[C@@H]3CCC4=CC(=O)CCC4=C32)cc1 [Compound 8]	168	170		
C=CC[C@]1(O)CC[C@H]2[C@@H]3CCC4=CC(=O)CCC4=C3[C@@H](c3ccc(P(C)(C)=O)cc3)C[C@@]21C [Compound 9]			> 1000	205
C=C(C)[C@]1(O)CC[C@H]2[C@@H]3CCC4=CC(=O)CCC4=C3[C@@H](c3ccc(P(C)(C)=O)cc3)C[C@@]21C [Compound 10]			> 3000	18.3
C=C(C)[C@]1(O)CC[C@H]2[C@@H]3CCC4=CC(=O)CCC4=C3[C@@H](c3ccc(P(=O)(OCC)OCC)cc3)C[C@@]21C [Compound 11]	66.3	51.3		
C=CC[C@]1(O)CC[C@H]2[C@@H]3CCC4=CC(=O)CCC4=C3[C@@H](c3ccc(P(=O)(OCC)OCC)cc3)C[C@@]21C [Compound 13]	30.2	170		
COP(=O)(OC)c1ccc([C@H]2C[C@]3(C)C(=O)CC[C@H]3[C@@H]3CCC4=CC(=O)CCC4=C32)cc1 [Compound 15]	> 3000	8.8		
C=C1CCO[C@]12CC[C@H]1[C@@H]3CCC4=CC(=O)CCC4=C3[C@@H](c3ccc(P(=O)(OC)OC)cc3)C[C@@]12C [Compound 16]	230	8.3		
C=C1CCO[C@]12CC[C@H]1[C@@H]3CCC4=CC(=O)CCC4=C3[C@@H](c3ccc(P(=O)(O)OC)cc3)C[C@@]12C [Compound 17]	> 3000	> 1000		
CCOP(C)(=O)c1ccc([C@H]2C[C@]3(C)C(=O)CC[C@H]3[C@@H]3CCC4=CC(=O)CCC4=C32)cc1 (stereo partly shown) [Compound 21]	> 3000			
C=C1CCO[C@]12CC[C@H]1[C@@H]3CCC4=CC(=O)CCC4=C3[C@@H](c3ccc(P(C)(=O)O)cc3)C[C@@]12C [Compound 22, 19,24-Dinorchola-4,9,20-trien-3-one, 1723-epoxy-11-[4-(hydroxy-methyl-phosphinoyl)phenyl]-(11β,17α)-(9Cl)]			> 3000	> 1000
C=C1CCO[C@]12CC[C@H]1[C@@H]3CCC4=CC(=O)CCC4=C3[C@@H](c3ccc(P4(=O)OCC(C)(C)CO4)cc3)C[C@@]12C [Compound 23, 19,24-Dinorchola-4,9,20-trien-3-one, 17,23-epoxy-11-[4-(5,5-Dimethyl-2-oxo-2λ^5-[1,3,2]dioxaphosphinan-2-yl)-phenyl]-, (11β,17α)-(9Cl)]			64.3	28.7

Structure (SMILES)	IC50 [1, 3] [nM]	IC50 [2, 4] [nM]	IC50 [1, 5] [nM]	IC50 [2, 6] [nM]
C=CC[C@]1(O)CC[C@H]2[C@@H]3CCC4=CC(=O)CCC4=C3[C@@H](c3ccc(P(=O)(c4ccccc4)c4ccccc4)cc3)C[C@@]21C [Compound 24]			48.2	762
CCOP(=O)(OCC)c1ccc([C@H]2C[C@@]3(C)[C@@H](CC[C@@]3(O)C#Cc3ccccc3)[C@@H]3CCC4=CC(=O)CCC4=C32)cc1 [Compound 25]	83.8	38.2		
CC#C[C@]1(O)CC[C@H]2[C@@H]3CCC4=CC(=O)CCC4=C3[C@@H](c3ccc(P(=O)(OCC)OCC)cc3)C[C@@]21C [Compound 26]	41.5	125		
CC#C[C@]1(O)CC[C@H]2[C@@H]3CCC4=CC(=O)CCC4=C3[C@@H](c3ccc(P(=O)(c4ccccc4)c4ccccc4)cc3)C[C@@]21C [Compound 27]			16.6	381
C/C=C/C[C@]1(O)CC[C@H]2[C@@H]3CCC4=CC(=O)CCC4=C3[C@@H](c3ccc(P(=O)(c4ccccc4)c4ccccc4)cc3)C[C@@]21C [Compound 28]			129	660
C/C=C/C[C@]1(O)CC[C@H]2[C@@H]3CCC4=CC(=O)CCC4=C3[C@@H](c3ccc(P(=O)(OCC)OCC)cc3)C[C@@]21C [Compound 29]	225	160		
C[C@]12C[C@H](c3ccc(P(=O)(c4ccccc4)c4ccccc4)cc3)C3=C4CCC(=O)C=C4CC[C@H]3[C@@H]1CC[C@@]2(O)C#Cc1ccccc1 [Compound 30]			93	275
COP(=O)(OC)c1ccc([C@H]2C[C@@]3(C)[C@@H](CC[C@@]3(O)C#Cc3ccccc3)[C@@H]3CCC4=CC(=O)CCC4=C32)cc1 [Compound 31]	130	7.47		
C[C@]12C[C@H](c3ccc(P(=O)(OCC(F)(F)F)OCC(F)(F)F)cc3)C3=C4CCC(=O)C=C4CC[C@H]3[C@@H]1CCC2=O [Compound 32]	217	> 1000		
C[C@]12C[C@H](c3ccc(P(=O)(Oc4ccccc4)Oc4ccccc4)cc3)C3=C4CCC(=O)C=C4CC[C@H]3[C@@H]1CCC2=O [Compound 33]			217	> 1000
C[C@]12C[C@H](c3ccc(P(=O)(OCc4ccccc4)OCc4ccccc4)cc3)C3=C4CCC(=O)C=C4CC[C@H]3[C@@H]1CCC2=O [Compound 35]			948	980
C=C1CCO[C@]12CC[C@H]1[C@@H]3CCC4=CC(=O)CCC4=C3[C@@H](c3ccc(P(=O)(c4ccccc4)c4ccccc4)cc3)C[C@@]12C [Compound 36, 19,24-Dinorchola-4,9,20-trien-3-one, 17,23-epoxy-11-[4-(diphenyl-phosphinoyl)-phenyl]-, (11β,17α)-(9Cl)]			163	45
C=C1CCO[C@]12CC[C@H]1[C@@H]3CCC4=CC(=O)CCC4=C3[C@@H](c3ccc(P(=O)(Oc4ccccc4)Oc4ccccc4)cc3)C[C@@]12C [Compound 37]			34.3	3.3
C=C1CCO[C@]12CC[C@H]1[C@@H]3CCC4=CC(=O)CCC4=C3[C@@H](c3ccc(P(=O)(OCC(F)(F)F)OCC(F)(F)F)cc3)C[C@@]12C [Compound 38, 19,24-Dinorchola-4,9,20-trien-3-one, 17,23-epoxy-11-[4-[Bis-(2,2,2-trifluoro-ethoxy)-phosphoryl]-phenyl]-, (11β,17α)-(9Cl)]			141	29.5
C=C1CCO[C@]12CC[C@H]1[C@@H]3CCC4=CC(=O)CCC4=C3[C@@H](c3ccc(P(=O)(c4ccc(Cl)cc4)c4ccc(Cl)cc4)cc3)C[C@@]12C [Compound 39, 19,24-Dinorchola-4,9,20-trien-3-one, 17,23-epoxy-11-[4-[Bis-(4-chloro-phenyl)-phosphinoyl]-phenyl]-, (11β,17α)-(9Cl)]			143	20
CCOP(=O)(C#C[C@]1(O)CC[C@H]2[C@@H]3CCC4=CC(=O)CCC4=C3[C@@H](c3ccc(N(C)C)cc3)C[C@@]21C)OCC [Compound 101]	> 100	1.3		
CN(C)c1ccc([C@H]2C[C@@]3(C)[C@@H](CC[C@@]3(O)C#CP(C)(C)=O)[C@@H]3CCC4=CC(=O)CCC4=C32)cc1 [Compound 102]			70.4	7.3
